Values quoted from earlier work as cited in US11206824B2, “Gas delivery device comprising a gas releasing molecule and a gas permeable membrane” (Julius-Maximilians-Universitaet Wuerzburg, priority 2015, dated 2021).

Key:
[1] = system: liver transplantation associated I/R injury; settings: pre-treatment of donors, inhaled
rodent kidney grafts = settings: 1 ml, 100 μmol/L in UW solution, 26 h cold preservation
rodent liver = settings: 50 μM in modified UW solution, 48 h cold ischemia
[2] = system: renal warm ischemia reperfusion injury; settings: i.v. 20 mg/kgBW, mice

[C-]#[O+] [CO, carbon monoxide]
liver transplantation associated I/R injury [1]: ameliorates

NCC(=O)O.[C-]#[O+].[C-]#[O+].[C-]#[O+].[Cl][Ru] [CORM-3, tricarbonylchloro ruthenium-glycinato]
cellular and graft injury and survival (rodent kidney grafts): significant impact on decreasing cellular and graft injury, and improving survival | perfusion flow, intrahepatic resistance and metabolic capacity (rodent liver): improved

[C-]#[O+].[C-]#[O+].[C-]#[O+].[C-]#[O+].[C-]#[O+].[C-]#[O+].[Cl][Ru][Cl].[Cl][Ru][Cl] [CORM-2, tricarbonyldichlororuthenium(II) dimer]
protection against lethal renal warm ischemia reperfusion injury [2]: almost completely protects
